# Key:
# [1] = test system: SSX2 mouse sarcoma cell line; test: Cancer cell growth in vitro (images after three days); format: cell-based; conditions: 200 nM BEZ235; three days after plating; 100,000 cells per flask
# Protocol: An SSX2 mouse sarcoma cell line (described in Rekoske et al., Cancer Immunol Res August 2015 3; 946) was split and 100,000 cells plated into each of two […] flasks. Cells were grown in RPMI-1640, 5% FCS, 200 U/mL Pen/Strep, 50 μM β-MeOH with or without 200 nM BEZ235 PI3-Kinase inhibitor. FIG. 2 left, mouse sarcoma cell line grown in normal media three days after plating; shown at […] and 10× and right, sarcoma cells from the same split plated with the same number of cells/cm^2 and grown in media containing the pan-PI3K inhibitor BEZ235.
# [2] = test system: activated (CD137+) CD8+ T cells; test: In vitro stimulation of splenocytes, surface expression of LAG-3 and PD1 by flow cytometry; format: cell-based, mouse; conditions: 200nM BEZ235; WT (CD3/28 beads) or OT1 (SIINFEKL peptide) splenocytes; 24 h
# Protocol: FIG. 1A depicts WT (top) and OT1 (bottom) splenocytes stimulated with either CD3/28 beads or SIINFEKL peptide respectively, with/without PI3K inhibition and assayed for surface expression of LAG-3 (left graphs) or PD1 (right graphs) on activated (CD137+) CD8+ T cells at 24 h. FIG. 1B depicts a representative OT1 sample showing levels of LAG-3 and PD1 on CD8+ T cells upon in vitro SIINFEKL stimulation in the presence of a PI3K inhibitor. (* denotes a p-value <0.05, two way Mann-Whitney test) FIG. 1C depicts WT splenocytes stimulated with CD3/28 beads with/without PI3K inhibition and assayed for intracellular expression of cytokines in CD8+ T cells.
# Splenocytes from either OT-1 or wild type (WT) C57BL/6J mice were cultured in RPMI-1640, 10% FCS, 200U/mL Pen/Strep, 1% NaPyr, 1% HEPES, 50 μM β-MeOH and 2 μg/mL SIINFEKL peptide (OT1 cells) or CD3 and CD28 antibody coated latex beads (WT cells) with or without 200nM BEZ235 PI3-Kinase inhibitor (Selleckchem, Catalog No. S1009).
# (* denotes a p-value <0.05, two way Mann-Whitney test).
smiles,measurement,setting,value
Cn1c(=O)n(-c2ccc(C(C)(C)C#N)cc2)c2c3cc(-c4cnc5ccccc5c4)ccc3ncc21 [BEZ235],cell growth,[1],inhibited cell growth
same,surface expression of LAG-3 on CD8+ T cells,[2],increased expression of LAG-3
same,surface expression of PD-1 on CD8+ T cells,[2],reduced expression of PD-1
